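Compound exposure: 48 hours, 5 concentrations, 96-well plates. GI50: concentration for 50% inhibition of growth.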 Activity calls are given as the source filed them. Rule as the data show it: active = GI50 up to about 1.1 µM and inactive = higher.
Assays:
Test in all cases: growth of human tumour cells (NCI), 48 h
786-0 = system: 786-0
DU-145 = system: DU-145
HCT-15 = system: HCT-15
HT-29 = system: HT-29
K562 = system: K562
MCF7 = system: MCF7
MDA-MB-231 = system: MDA-MB-231
NCI-H522 = system: NCI-H522
OVCAR-3 = system: OVCAR-3
OVCAR-4 = system: OVCAR-4
OVCAR-5 = system: OVCAR-5
RPMI-8226 = system: RPMI-8226
SF-268 = system: SF-268
SK-MEL-28 = system: SK-MEL-28
SK-OV-3 = system: SK-OV-3
SW-620 = system: SW-620
UACC-62 = system: UACC-62
NCI-H226 = system: NCI-H226
EKVX = system: EKVX

Structure (SMILES) | GI50 (786-0) | GI50 (DU-145) | GI50 (HCT-15) | GI50 (HT-29) | GI50 (K562) | GI50 (MCF7) | GI50 (MDA-MB-231) | GI50 (NCI-H522) | GI50 (OVCAR-3) | GI50 (OVCAR-4) | GI50 (OVCAR-5) | GI50 (RPMI-8226) | GI50 (SF-268) | GI50 (SK-MEL-28) | GI50 (SK-OV-3) | GI50 (SW-620) | GI50 (UACC-62) | GI50 (NCI-H226) | GI50 (EKVX)
CNC(=O)CCNC(=O)CCC(=O)N(C)C | > 100 µM (inactive) | > 100 µM (inactive) | > 100 µM | > 100 µM (inactive) | > 100 µM (inactive) | > 100 µM (inactive) | > 100 µM (inactive) | 2.77 µM (inactive) | > 100 µM (inactive) | > 100 µM (inactive) | > 100 µM (inactive) | > 100 µM (inactive) | > 100 µM (inactive) | > 100 µM (inactive) | > 100 µM (inactive) | > 100 µM (inactive) | > 100 µM (inactive) | – | –
CCOC(=O)C(COS(C)(=O)=O)(COS(C)(=O)=O)C(=O)OCC | – | > 100 µM (inactive) | > 100 µM | > 100 µM (inactive) | > 100 µM (inactive) | > 100 µM (inactive) | > 100 µM (inactive) | > 100 µM (inactive) | > 100 µM (inactive) | > 100 µM (inactive) | – | – | > 100 µM (inactive) | > 100 µM (inactive) | > 100 µM (inactive) | > 100 µM (inactive) | – | > 100 µM (inactive) | –
Cn1c2c(c3ccccc31)CCN=C2C1CCCOC1=O (stereo unspecified) | > 100 µM (inactive) | > 100 µM (inactive) | > 100 µM | > 100 µM (inactive) | – | > 100 µM (inactive) | > 100 µM (inactive) | > 100 µM (inactive) | > 100 µM (inactive) | > 100 µM (inactive) | > 100 µM (inactive) | – | > 100 µM (inactive) | > 100 µM (inactive) | – | > 100 µM (inactive) | > 100 µM (inactive) | 11.7 µM (inactive) | 88.3 µM (inactive)
Cc1ccccc1/N=N/c1c(O)c(S(=O)(=O)O)cc2cc(S(=O)(=O)O)ccc12 | > 100 µM (inactive) | > 100 µM (inactive) | > 100 µM | > 100 µM (inactive) | > 100 µM (inactive) | > 100 µM (inactive) | > 100 µM (inactive) | > 100 µM (inactive) | > 100 µM (inactive) | > 100 µM (inactive) | > 100 µM (inactive) | – | > 100 µM (inactive) | > 100 µM (inactive) | > 100 µM (inactive) | > 100 µM (inactive) | > 100 µM (inactive) | > 100 µM (inactive) | > 100 µM (inactive)
S=C(N/N=C/c1ccccn1)N1CC2CCC(CC2)C1 | < 0.01 µM (active) | 0.0471 µM (active) | < 0.01 µM | < 0.01 µM (active) | < 0.01 µM (active) | < 0.01 µM (active) | < 0.01 µM (active) | < 0.01 µM (active) | < 0.01 µM (active) | 0.0308 µM (active) | < 0.024 µM (active) | < 0.01 µM (active) | 0.0301 µM (active) | 0.0559 µM (active) | < 0.01 µM (active) | < 0.01 µM (active) | < 0.0365 µM (active) | – | < 0.0395 µM (active)
COc1cccc(/C=N/n2c(-c3ccccc3)n[nH]c2=O)c1 | 40.8 µM (inactive) | 49.5 µM (inactive) | > 100 µM | > 100 µM (inactive) | > 100 µM (inactive) | 75.5 µM (inactive) | 29.5 µM (inactive) | – | > 100 µM (inactive) | > 100 µM (inactive) | > 100 µM (inactive) | > 100 µM (inactive) | 17.5 µM (inactive) | > 100 µM (inactive) | 44.2 µM (inactive) | > 100 µM (inactive) | 72.4 µM (inactive) | 43.7 µM (inactive) | > 100 µM (inactive)

— ChEMBL document CHEMBL1201862, “PubChem BioAssay data set” (2004)
